Molecular target: T1, GPR84 (Homo sapiens, UniProt Q9NQS5)
T1 construct: expressed in transfected cells
Assay: GPR84 [35S]GTPγS binding assay, HEPES buffer
Type: biochemical
Details: 3,3′ di indolylmethane at EC80, membranes from stable cell line over expressing GPR84
Experimental: 1.1. Cell Based Assay: GTp-γ S Binding Assay.
The following assay can be used for determination of GPR84 activation.
The assay is performed in a 96 well plate where the following reagents are added. […] In a last step, 30 μL of a mixture consisting of membranes-GTPγS-SpA beads is added [mixture consists of 20 μg/well membranes derived from stable cell line over expressing GPR84 (membranes are pre-incubated with 0.1 μM GDP for 15 min at 4° C.), 0.1 nM [^35S]GTPγS (Perkin Elmer, NEG030) and 0.5 mg/well PVT-WGA SpA beads (Perkin Elmer, RPNQ0001)]. All components are diluted in assay buffer containing 20 mM HEPES pH 7.4; 5 mM MgCl2; 250 mM NaCl; 0.05% BSA; 75 ug/mL saponin Reactions are incubated for 90 min at room temperature followed by centrifugation at 2000 rpm during 15 min. Plates are read on a Topcount reader (Perkin Elmer) immediately after centrifugation (readout time, 1 min/well).

T1 sequence (Q9NQS5 whole entry): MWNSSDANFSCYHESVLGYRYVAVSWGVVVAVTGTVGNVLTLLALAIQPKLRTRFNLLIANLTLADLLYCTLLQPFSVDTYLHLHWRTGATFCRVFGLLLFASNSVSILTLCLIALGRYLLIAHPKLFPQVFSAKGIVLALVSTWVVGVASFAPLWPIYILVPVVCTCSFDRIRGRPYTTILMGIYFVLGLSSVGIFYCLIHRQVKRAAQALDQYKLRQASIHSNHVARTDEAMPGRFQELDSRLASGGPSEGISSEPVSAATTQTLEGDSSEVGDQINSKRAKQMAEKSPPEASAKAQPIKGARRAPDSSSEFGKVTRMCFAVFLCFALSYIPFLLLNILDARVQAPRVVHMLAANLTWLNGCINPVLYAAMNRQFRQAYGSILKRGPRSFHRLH

IC50 [nM] | Compound
0.01 to 100 | CC(C)(C)c1nc(COc2ccc3c(c2)CCn2c-3cc(OCC3CCCO3)nc2=O)no1 (centres unmarked) [compound 87, 9-(5-tert-butyl-[1,2,4]oxadiazol-3-ylmethoxy)-2-(tetrahydro-furan-2-ylmethoxy)-6,7-dihydro-pyrimido[6,1-a]isoquinolin-4-one]
0.01 to 100 | CCOc1ccc(-c2ccc3c(c2)CCn2c-3cc(OCC3COc4ncccc4O3)nc2=O)cn1 (centres unmarked) [compound 164, 2-(2,3-dihydro-[1,4]dioxino[2,3-b]pyridin-2-ylmethoxy)-9-(6-ethoxy-pyridin-3-yl)-6,7-dihydro-pyrimido[6,1-a]isoquinolin-4-one]
100 to 500 | COc1ccccc1-c1ccc2c(c1)CCn1c-2cc(OCC2CCCO2)nc1=O (centres unmarked) [compound 99, 9-(2-methoxy-phenyl)-2-(tetrahydro-furan-2-ylmethoxy)-6,7-dihydro-pyrimido[6,1-a]isoquinolin-4-one]
100 to 500 | O=c1nc(OCC2CCCO2)cc2n1CCc1cc(OCc3ccccc3Cl)ccc1-2 (centres unmarked) [compound 23, 9-(2-chloro-benzyloxy)-2-(tetrahydro-furan-2-ylmethoxy)-6,7-dihydro-pyrimido[6,1-a]isoquinolin-4-one]
0.01 to 100 | CCCCn1nnnc1COc1ccc2c(c1)CCn1c-2cc(OCC2COc3ccccc3O2)nc1=O (centres unmarked) [compound 70, 9-(1-butyl-1H-tetrazol-5-ylmethoxy)-2-(2,3-dihydro-benzo[1,4]dioxin-2-ylmethoxy)-6,7-dihydro-pyrimido[6,1-a]isoquinolin-4-one]
0.01 to 100 | COc1ccc(OCCOc2ccc3c(c2)CCn2c-3cc(OCC3CCCO3)nc2=O)cc1 (centres unmarked) [compound 42, 9-[2-(4-methoxy-phenoxy)-ethoxy]-2-(tetrahydro-furan-2-ylmethoxy)-6,7-dihydro-pyrimido[6,1-a]isoquinolin-4-one]
100 to 500 | Cn1cc(-c2cccc(COc3ccc4c(c3)CCn3c-4cc(OCC4CCCO4)nc3=O)n2)cn1 (centres unmarked) [compound 55, 9-[6-(1-methyl-1H-pyrazol-4-yl)-pyridin-2-ylmethoxy]-2-(tetrahydro-furan-2-ylmethoxy)-6,7-dihydro-pyrimido[6,1-a]isoquinolin-4-one]
100 to 500 | NC(=O)c1ccc(-c2ccc3c(c2)CCn2c-3cc(OCC3CCCO3)nc2=O)cc1 (centres unmarked) [compound 106, 4-[4-oxo-2-(tetrahydro-furan-2-ylmethoxy)-6,7-dihydro-4H-pyrimido[6,1-a]isoquinolin-9-yl]-benzamide]
0.01 to 100 | O=c1nc(OCC2COc3ncccc3O2)cc2n1CCc1cc(-c3ccc(N4CCOCC4)nc3)ccc1-2 (centres unmarked) [compound 165, 2-(2,3-dihydro-[1,4]dioxino[2,3-b]pyridin-2-ylmethoxy)-9-(6-morpholin-4-yl-pyridin-3-yl)-6,7-dihydro-pyrimido[6,1-a]isoquinolin-4-one]
0.01 to 100 | O=c1nc(OCC2COc3ccccc3O2)cc2n1CCc1cc(OCC3CCCO3)ccc1-2 (centres unmarked) [compound 54, 2-(2,3-dihydro-benzo[1,4]dioxin-2-ylmethoxy)-9-(tetrahydro-furan-2-ylmethoxy)-6,7-dihydro-pyrimido[6,1-a]isoquinolin-4-one]
100 to 500 | NC1(C#Cc2ccc3c(c2)CCn2c-3cc(OCC3COc4ncccc4O3)nc2=O)CCCCC1 (centres unmarked) [compound 184, 9-(1-amino-cyclohexylethynyl)-2-(2,3-dihydro-[1,4]dioxino[2,3-b]pyridin-2-ylmethoxy)-6,7-dihydro-pyrimido[6,1-a]isoquinolin-4-one]
0.01 to 100 | CC(C)(Oc1ccc2c(c1)CCn1c-2cc(OCC2COc3ccccc3O2)nc1=O)C(N)=O (centres unmarked) [compound 49, 2-[2-(2,3-dihydro-benzo[1,4]dioxin-2-ylmethoxy)-4-oxo-6,7-dihydro-4H-pyrimido[6,1-a]isoquinolin-9-yloxy]-2-methyl-propionamide]
100 to 500 | O=c1nc(OCC2COc3ccccc3O2)cc2n1CCc1cc(OCCN3CCCC3)ccc1-2 (centres unmarked) [compound 79, 2-(2,3-dihydro-benzo[1,4]dioxin-2-ylmethoxy)-9-(2-pyrrolidin-1-yl-ethoxy)-6,7-dihydro-pyrimido[6,1-a]isoquinolin-4-one]
0.01 to 100 | N#Cc1ccccc1COc1ccc2c(c1)CCn1c-2cc(OCC2CCCO2)nc1=O (centres unmarked) [compound 20, 2-[4-oxo-2-(tetrahydro-furan-2-ylmethoxy)-6,7-dihydro-4H-pyrimido[6,1-a]isoquinolin-9-yloxymethyl]-benzonitrile]
0.01 to 100 | N#CCOc1ccc2c(c1)CCn1c-2cc(OCC2COc3ccccc3O2)nc1=O (centres unmarked) [compound 72, [2-(2,3-dihydro-benzo[1,4]dioxin-2-ylmethoxy)-4-oxo-6,7-dihydro-4H-pyrimido[6,1-a]isoquinolin-9-yloxy]-acetonitrile]
0.01 to 100 | COc1cccc(-c2ccc3c(c2)CCn2c-3cc(OCC3COc4ncccc4O3)nc2=O)c1OC (centres unmarked) [compound 167, 2-(2,3-dihydro-[1,4]dioxino[2,3-b]pyridin-2-ylmethoxy)-9-(2,3-dimethoxy-phenyl)-6,7-dihydro-pyrimido[6,1-a]isoquinolin-4-one]
0.01 to 100 | CN(C)CC#Cc1ccc2c(c1)CCn1c-2cc(OCC2COc3ncccc3O2)nc1=O (centres unmarked) [compound 172, 2-(2,3-dihydro-[1,4]dioxino[2,3-b]pyridin-2-ylmethoxy)-9-(3-dimethylamino-prop-1-ynyl)-6,7-dihydro-pyrimido[6,1-a]isoquinolin-4-one]
100 to 500 | CN(CC#Cc1ccc2c(c1)CCn1c-2cc(OCC2COc3ncccc3O2)nc1=O)Cc1ccccc1 (centres unmarked) [compound 173, 9-[3-(benzyl-methyl-amino)-prop-1-ynyl]-2-(2,3-dihydro-[1,4]dioxino[2,3-b]pyridin-2-ylmethoxy)-6,7-dihydro-pyrimido[6,1-a]isoquinolin-4-one]
0.01 to 100 | O=c1nc(OCC2COc3ccccc3O2)cc2n1CCc1cc(OCc3ccccn3)ccc1-2 (centres unmarked) [compound 28, 2-(2,3-dihydro-benzo[1,4]dioxin-2-ylmethoxy)-9-(pyridin-2-ylmethoxy)-6,7-dihydro-pyrimido[6,1-a]isoquinolin-4-one]
0.01 to 100 | COC(=O)c1cccc(COc2ccc3c(c2)CCn2c-3cc(OCC3CCCO3)nc2=O)c1 (centres unmarked) [compound 27, 3-[4-oxo-2-(tetrahydro-furan-2-ylmethoxy)-6,7-dihydro-4H-pyrimido[6,1-a]isoquinolin-9-yloxymethyl]-benzoic acid methyl ester]
0.01 to 100 | O=c1nc(OCC2CCCO2)cc2n1CCc1cc(OCc3ccc([N+](=O)[O-])cc3)ccc1-2 (centres unmarked) [compound 33, 9-(4-nitro-benzyloxy)-2-(tetrahydro-furan-2-ylmethoxy)-6,7-dihydro-pyrimido[6,1-a]isoquinolin-4-one]
0.01 to 100 | O=c1nc(OCC2COc3ncccc3O2)cc2n1CCc1cc(OCC3CCCCO3)ccc1-2 (centres unmarked) [compound 179, 2-(2,3-dihydro-[1,4]dioxino[2,3-b]pyridin-2-ylmethoxy)-9-(tetrahydro-pyran-2-ylmethoxy)-6,7-dihydro-pyrimido[6,1-a]isoquinolin-4-one]
100 to 500 | O=C(NC1CCOCC1)c1ccc2c(c1)CCn1c-2cc(OCC2COc3ncccc3O2)nc1=O (centres unmarked) [compound 195, 2-(2,3-dihydro-[1,4]dioxino[2,3-b]pyridin-2-ylmethoxy)-4-oxo-6,7-dihydro-4H-pyrimido[6,1-a]isoquinoline-9-carboxylic acid (tetrahydro-pyran-4-yl)-amide]

Reference: patent US9708312B2, “Dihydropyrimidinoisoquinolinones and pharmaceutical compositions thereof for the treatment of inflammatory disorders (GPR84 antagonists)” (GALAPAGOS NV, priority 2012, dated 2017)
